Measured values from patent US20240374646A1, “COMPOSITION FOR INHIBITING INFLAMMATION OR AGING OF STEM CELLS, AND METHOD FOR INHIBITING INFLAMMATION OR AGING BY USING SAME” (MITOIMMUNE THERAPEUTICS INC., priority 2021, published 2024).

Experiments:
Format in all cases: cell-based, human
[1] = system: TNF-α/IFN-γ-exposed hPD-MSCs; experiment: MSC morphology: bright-field and phalloidin/Hoechst fluorescence images; settings: hPD-MSCs with 2.5 ng/mL TNF-α and 25 ng/mL IFN-γ, 24 hours; FIG. 1A
Protocol: Human placenta-derived mesenchymal stem cells (hPD-MSCs) were harvested from inside the placental chorion, and the harvested cells were cultured in an alpha-Minimum Essential medium (Cytiva, Marlborough, MA, USA) supplemented with 10% fetal bovine serum (ThermoFisher, Waltham, MA, USA), 1% penicillin/streptomycin (ThermoFisher, Waltham, MA, USA), 25 ng/mL human fibroblast growth factor-4 (Peprotech, Rocky Hill, NJ, USA) and 1 μg/mL heparin (Merck, San Francisco, CA, USA). A total of 1×10^5 hPD-MSCs were seeded in a cell culture dish (90×20 mm) (SPL, Pocheon, Korea) and cultured at 37° C. in an incubator containing 5% CO2. The cells were subcultured every 4 days until reaching 70 to 80% confluency. Expanded cells were obtained at passage 12 or 13. During subculture, viable cells were stained with Trypan blue (Merck) and the number of cells was manually counted. […] The morphology of MSCs was confirmed by bright-field images and fluorescence microscope images, stained cells were identified by phalloidin, which specifically labels the F-actin structure, and Hoechst 33342, which labels nuclei, in the fluorescence image, and the results are shown in FIG. 1A. […]

S6K = experiment: Western blotting, S6K phosphorylation ratio (mTORC1 pathway); settings: vs MSC control exposed to TNF-α/IFN-γ; FIG. 4D
Protocol: (§1) Further, the phosphorylation-induced activation ratios of AKT/mTOR/S6K, which represents the mTORC1 pathway, was analyzed. mTORC1 activation is known to not only induce senescence-associated phenotypes in MSCs, but also impair quiescence and sternness. In the present experiment, the phosphorylation ratio was confirmed using western blotting analysis as described below.
(§2) Proteins were extracted with a Pro-Prep protein lysis buffer (iNtRON) and quantified by a protein quantitative analysis kit (BIOMAX, Seoul, Korea). Samples were then heated in 4× Laemmli sample buffer (Bio-Rad) containing 2-mercaptoethanol (Bio-Rad), and proteins were loaded onto an 8% sodium dodecyl sulfate polyacrylamide gel and electrophoresed at 60 V for 30 minutes, and then electrophoresed at 120 V for 1 hour. […]
(§3) Immunoreactive bands were detected using an enhanced chemiluminescence detection reagent (Clarity™ Western blot substrate, Bio-Rad) and images of the bands were obtained using ImageSaver Version 6 (ATTO, Tokyo, Japan). The intensity of each band was analyzed with CA4 analyzer software (ATTO), and each experiment was performed in triplicate under the same conditions. […]

mitofusion 1 (MFN1) = experiment: Real-time qPCR, mitochondrial dynamics gene MFN1; settings: vs TNF-α/IFN-γ-exposed MSC control (TI); FIG. 2B
Protocol: (§4) Real-time qPCR was performed using an Easy-Spin Total RNA Kit (iNtRON, Seongnam, Korea) to extract total RNA from hPD-MSCs and RNA concentration was adjusted to 100 ng/μL using a microplate spectrophotometer (Epoch™ Microplate Spectrophotometer, BioTek, Winooski, VT, USA), and the extracted RNA was reverse transcribed into cDNA using RT PreMix (dT20) (Bioneer, Seoul, Korea) using a SimpliAmp Thermal Cycler (Life Technologies, Carlsbad, CA, USA). Real-time qPCR was performed using a real-time PCR machine (CFX Connect, Bio-Rad, Hercules, CA, USA), SYBR Green Supermix (Bio-Rad) and the relevant primers, and all experiments were performed in triplicate for statistical analysis.
(§5) To investigate mitochondrial dynamics, real-time qPCR was performed to analyze the expression of dynamin-related protein 1 (DRP1), which is a mitochondrial division-related gene, and mitofusion 1 (MFN1) and mitofusion 2 (MFN2), which are […] mitochondrial membrane fusion-related genes. As the real-time qPCR analysis method, the same method described in Experimental Example 1-2 above was used, and the results are shown in FIG. 2B.

mTOR = experiment: Western blotting, mTOR phosphorylation ratio (mTORC1 pathway); settings: vs MSC control exposed to TNF-α/IFN-γ; FIG. 4D
Protocol: as §1, §2, §3

[2] = system: dynamin-related protein 1 (DRP1); experiment: Real-time qPCR, mitochondrial dynamics gene DRP1; settings: vs TNF-α/IFN-γ-exposed MSC control (TI); FIG. 2B
Protocol: as §4, §5

[3] = system: monocyte chemotactic protein-1 (MCP-1); experiment: Real-time qPCR, SASP factor MCP-1; settings: vs MSCs exposed to TNF-α/IFN-γ; FIG. 4C
Protocol: as §4
In the present experiment, the expression of IL-1β, IL-6, and monocyte chemotactic protein-1 (MCP-1), which are SASP-associated factors of the untreated MSC control, the TNF-α/IFN-γ-exposed MSC control (TI), and the experimental group treated with the example compound in the TNF-α/IFN-γ-exposed MSC control was analyzed by real-time qPCR. As the real-time qPCR analysis method, the same method described in Experimental Example 1-2 above was used, and the results are shown in FIGS. 4A to 4C.

## O=S1(=O)CCN(Cc2cc(NC3CCOCC3)c3[nH]c(-c4ccccc4)cc3c2)CC1 [example compound, 5-[(1,1-dioxido-4-thiomorpholinyl)methyl]-2-phenyl-N-(tetrahydro-2H-pyran-4-yl)-1H-indole-7-amine]
[1]
  abnormal morphology and disorganized microfilaments (F-actin cytoskeletal structure): remarkably improved to levels similar to those of the untreated MSC control
S6K
  reduction of S6K phosphorylation ratio (pS6K/S6K): ~40%
Mitofusion 1 (MFN1)
  MFN1 expression level: slightly reduced
mTOR
  reduction of mTOR phosphorylation ratio (pmTOR/mTOR): ~30%
[2]
  DRP1 expression level: slightly reduced
[3]
  decrease of MCP-1 expression: ~15%
